Target: T1, electric eel AChE (eeAChE) (Electrophorus electricus, UniProt O42275)
T1 construct: purchased type VI-S
Experiment: biochemical
Assay type: biochemical
Experimental: A UV–vis spectrophotometry-based assay was conducted to calculate the IC50 values for the diastereomeric mixtures (Table 6), according to Ellman et al.[37] and Mohamed et al.[38]
All of these solutions were prepared freshly directly before the assay was run. In 96-well plates, 160 μL of the 1.5 mM DTNB solution was first added, followed by 10 μL of different concentrations of test compounds. Then, a 0.22 U/mL enzyme solution was added (50 μL) and incubated at room temperature for 7 min. The background absorbance was measured at a wavelength of 412 nm on a POLARstar OPTIMA (BMG Labtech) microplate reader. The addition of 30 μL of the 15 mM ATCI solution initiated the enzymatic reaction, and the time elapsed between the beginning of the pipetting and the first measurement (t = 0) was noted and kept consistently at 2 min. Further kinetic measurements were made at different time intervals (t = 1, 2, 3, 4, 5 min) after a short episode of shaking (10 s). Each experiment was carried out in triplicate. Various control incubations containing 10 μL of methanol were run alongside the test compounds on each plate.

T1 sequence (O42275 24-633): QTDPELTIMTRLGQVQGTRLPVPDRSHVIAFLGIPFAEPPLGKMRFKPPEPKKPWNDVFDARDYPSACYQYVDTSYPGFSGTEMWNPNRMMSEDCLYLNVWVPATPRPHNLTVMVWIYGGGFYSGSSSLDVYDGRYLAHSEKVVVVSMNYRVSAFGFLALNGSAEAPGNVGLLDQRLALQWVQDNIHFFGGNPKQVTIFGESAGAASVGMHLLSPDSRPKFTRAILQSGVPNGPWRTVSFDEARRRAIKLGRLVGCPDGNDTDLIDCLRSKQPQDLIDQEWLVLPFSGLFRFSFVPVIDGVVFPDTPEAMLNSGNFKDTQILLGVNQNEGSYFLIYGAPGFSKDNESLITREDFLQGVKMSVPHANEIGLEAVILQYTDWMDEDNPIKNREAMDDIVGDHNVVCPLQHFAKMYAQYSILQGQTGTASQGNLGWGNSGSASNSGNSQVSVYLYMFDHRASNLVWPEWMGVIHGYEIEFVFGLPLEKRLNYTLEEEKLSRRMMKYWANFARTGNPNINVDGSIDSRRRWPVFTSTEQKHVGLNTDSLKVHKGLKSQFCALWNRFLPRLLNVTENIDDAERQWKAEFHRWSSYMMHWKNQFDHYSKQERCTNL

Structure (SMILES)	IC50	times more active than the 2R,4S-anti-substituted analogues 4 + 4′c (IC50 ratio) (eeAChE IC50, syn versus anti)	times less active than donepezil 1 (IC50 ratio) (eeAChE IC50 compared with donepezil 1)
COc1cc2c(cc1OC)C(=O)C(C[C@@H]1CCN([C@@H](C)c3ccccc3)[C@H](C)C1)C2 (stereo partly drawn) [2R,4R-4+4’d, R-5,6-Dimethoxy-2-((2R,4R-2-methyl-1-(S-1-phenylethyl)piperidin-4-yl)-methyl)-2,3-dihydro-1H-inden-1-one (4d) and S-5,6-Dimethoxy-2-((2R,4R-2-methyl-1-(S-1-phenylethyl)piperidin-4-yl)-methyl)-2,3-dihydro-1H-inden-1-one (4′d)]	13.1 ± 0.47 µM	–	–
COc1cc2c(cc1OC)C(=O)C(C[C@H]1CCN([C@@H](C)c3ccccc3)[C@H](C)C1)C2 (stereo partly drawn) [2R,4S-4+4’c, R-5,6-Dimethoxy-2-((2R,4S-2-methyl-1-(S-1-phenylethyl)piperidin-4-yl)-methyl)-2,3-dihydro-1H-inden-1-one (4c) and S-5,6-Dimethoxy-2-((2R,4S-2-methyl-1-(S-1-phenylethyl)piperidin-4-yl)-methyl)-2,3-dihydro-1H-inden-1-one (4′c)]	24.3 ± 1.32 µM	–	–
COc1cc2c(cc1OC)C(=O)C(C[C@@H]1CCN([C@@H](C)c3ccccc3)[C@@H](C)C1)C2 (stereo partly drawn) [2S,4R-4+4’b, R-5,6-Dimethoxy-2-((2S,4R-2-methyl-1-(S-1-phenylethyl)piperidin-4-yl)-methyl)-2,3-dihydro-1H-inden-1-one (4b) and S-5,6-Dimethoxy-2-((2S,4R-2-methyl-1-(S-1-phenylethyl)piperidin-4-yl)-methyl)-2,3-dihydro-1H-inden-1-one (4′b)]	8.82 ± 0.21 µM	–	–
COc1cc2c(cc1OC)C(=O)C(C[C@H]1CCN([C@@H](C)c3ccccc3)[C@@H](C)C1)C2 (stereo partly drawn) [2S,4S-4+4’a, R-5,6-Dimethoxy-2-((2S,4S-2-methyl-1-(S-1-phenylethyl)piperidin-4-yl)-methyl)-2,3-dihydro-1H-inden-1-one (4a) and y-5,6-Dimethoxy-2-((2S,4S-2-methyl-1-(S-1-phenylethyl)piperidin-4-yl)-methyl)-2,3-dihydro-1H-inden-1-one (4′a)]	1.01 ± 0.03 µM	approximately 24 times	–
COc1cc2c(cc1OC)C(=O)C(CC1CCN([C@@H](C)c3ccccc3)CC1)C2 (stereo partly shown) [19+19’, R-5,6-Dimethoxy-2-((1-(S-1-phenylethyl)piperidin-4-yl)methyl)-2,3-dihydro-1H-inden-1-one (19) and S-5,6-Dimethoxy-2-((1-(S-1-phenylethyl)piperidin-4-yl)methyl)-2,3-dihydro-1H-inden-1-one (19′)]	1.83 ± 0.04 µM	–	approximately 27 times

From paper PMC7017409 (ACS Omega, 2020)
